The text below walks through data of patent US11267800B2, “Cyclohexyl acid triazole azines as LPA antagonists” (BRISTOL-MYERS SQUIBB COMPANY, priority 2017, dated 2022).

The structures appear in SMILES notation.

In this assay the target is T1, human LPA1 (Homo sapiens, UniProt Q92633).
T1 construct: expressed in transfected cells; host or cells: Chinese hamster ovary (CHO) cells
Briefly: LPA1 functional antagonist assay (calcium flux). Format: cell-based. The conditions noted are these: CHO cells overexpressing human LPA1; inhibition of calcium flux induced by 10 nM LPA; read-out: hLPA1 IC50. An outline of the steps: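 Dye-loaded CHO cells overexpressing human LPA1 (30 min, 37 °C) were preincubated 20 min at room temperature with compound (0.08 nM–5 μM; 0.5% DMSO; HBSS, 20 mM HEPES, 0.1% fatty-acid-free BSA), then stimulated with 10 nM LPA. IC50 is the concentration inhibiting 50% of LPA-induced calcium flux, from a 4-parameter logistic fit.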
(Calcium flux is commonly read through the fluorescence of an indicator in the cells.)

T1 sequence (Q92633 whole entry): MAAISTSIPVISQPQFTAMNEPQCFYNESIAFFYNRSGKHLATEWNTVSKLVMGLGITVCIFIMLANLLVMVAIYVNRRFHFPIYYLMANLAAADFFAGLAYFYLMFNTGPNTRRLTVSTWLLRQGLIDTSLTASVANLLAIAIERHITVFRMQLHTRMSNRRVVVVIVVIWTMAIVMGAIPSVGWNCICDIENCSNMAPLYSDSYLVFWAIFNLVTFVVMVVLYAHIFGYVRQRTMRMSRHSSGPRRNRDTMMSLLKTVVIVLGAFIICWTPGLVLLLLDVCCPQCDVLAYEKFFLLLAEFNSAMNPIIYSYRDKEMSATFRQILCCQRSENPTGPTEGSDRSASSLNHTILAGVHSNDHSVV

For the molecule `CCCc1ncnc(NCc2c(-c3ccc(O[C@H]4CCC[C@H](C(=O)O)C4)cn3)nnn2C)n1` [Example 221, (1S,3S)-3-((6-(1-methyl-5-(((4-propyl-1,3,5-triazin-2-yl)amino)methyl)-1H-1,2,3-triazol-4-yl)pyridin-3-yl)oxy) cyclohexane-1-carboxylic acid], the IC50 worked out at 0.063 µM. Next, `CCCCc1ncnc(NCc2c(-c3ccc(O[C@H]4CCC[C@H](C(=O)O)C4)cn3)nnn2C)n1` [Example 222, (1S,3S)-3-((6-(5-(((4-butyl-1,3,5-triazin-2-yl)amino)methyl)-1-methyl-1H-1,2,3-triazol-4-yl)pyridin-3-yl)oxy)cyclohexane-1-carboxylic acid]: 0.068 µM; `Cn1nnc(-c2ccc(O[C@H]3CCC[C@H](C(=O)O)C3)cn2)c1CNc1ncnc(C2CC2)n1` [Example 223, (1S,3S)-3-((6-(5-(((4-cyclopropyl-1,3,5-triazin-2-yl)amino)methyl)-1-methyl-1H-1,2,3-triazol-4-yl)pyridin-3-yl)oxy)cyclohexane-1-carboxylic acid]: 0.211 µM; `CCc1ncnc(NCc2c(-c3ccc(O[C@H]4CCC[C@H](C(=O)O)C4)cn3)nnn2C)n1` [Example 224, (1S,3S)-3-((6-(5-(((4-ethyl-1,3,5-triazin-2-yl)amino)methyl)-1-methyl-1H-1,2,3-triazol-4-yl)pyridin-3-yl)oxy) cyclohexane-1-carboxylic acid]: 0.813 µM.

For the molecule `CCc1nc(CC)nc(NCc2c(-c3ccc(O[C@H]4CCC[C@H](C(=O)O)C4)cn3)nnn2C)n1` [Example 225, (1S,3S)-3-((6-(5-(((4,6-diethyl-1,3,5-triazin-2-yl)amino)methyl)-1-methyl-1H-1,2,3-triazol-4-yl)pyridin-3-yl)oxy)cyclohexane-1-carboxylic acid], the concentration for half-maximal inhibition (IC50) stood at 0.789 µM. Consider `Cc1nc(-c2nnn(C)c2Nc2cccc(Cc3ccccc3)n2)ccc1O[C@H]1CCC[C@H](C(=O)O)C1` [Example 226, (1S,3S)-3-((6-(5-((6-benzylpyridin-2-yl)amino)-1-methyl-1H-1,2,3-triazol-4-yl)-2-methylpyridin-3-yl)oxy)cyclohexane-1-carboxylicacid], for which the IC50 was 0.019 µM. Regarding `Cc1nc(-c2nnn(C)c2Nc2nccc(OC3CC3)n2)ccc1O[C@H]1CCC[C@H](C(=O)O)C1` [Example 227, (1S,3S)-3-((6-(5-((4-cyclopropoxypyrimidin-2-yl)amino)-1-methyl-1H-1,2,3-triazol-4-yl)-2-methylpyridin-3-yl)oxy)cyclohexane-1-carboxylic acid], the IC50 worked out at 0.215 µM. Next, `Cc1nc(-c2nnn(C)c2Nc2ccnc(OC3CC3)n2)ccc1O[C@H]1CCC[C@H](C(=O)O)C1` [Example 228, (1S,3S)-3-((6-(5-((2-cyclopropoxypyrimidin-4-yl)amino)-1-methyl-1H-1,2,3-triazol-4-yl)-2-methylpyridin-3-yl)oxy)cyclohexane-1-carboxylic acid]: 0.215 µM; `CCOc1ccnc(Nc2c(-c3ccc(O[C@H]4CCC[C@H](C(=O)O)C4)c(C)n3)nnn2C)n1` [Example 229, (1S,3S)-3-((6-(5-((4-ethoxypyrimidin-2-yl)amino)-1-methyl-1H-1,2,3-triazol-4-yl)-2-methylpyridin-3-yl)oxy)cyclohexane-1-carboxylic acid]: 0.165 µM. Next, `CCCc1cccc(Nc2c(-c3ccc(O[C@H]4CCC[C@H](C(=O)O)C4)c(C)n3)nnn2C)n1` [Example 230, (1S,3S)-3-((2-methyl-6-(1-methyl-5-((6-propylpyridin-2-yl)amino)-1H-1,2,3-triazol-4-yl)pyridin-3-yl)oxy) cyclohexane-1-carboxylic acid]: 0.011 µM; `Cc1nc(-c2nnn(C)c2Nc2cccc(C3CC3)n2)ccc1O[C@H]1CCC[C@H](C(=O)O)C1` [Example 231, (1S,3S)-3-((6-(5-((6-cyclopropyl-pyridin-2-yl)amino)-1-methyl-1H-1,2,3-triazol-4-yl)-2-methylpyridin-3-yl)oxy)cyclohexane-1-carboxylic acid]: 0.021 µM. Next, `Cc1nc(-c2nnn(C)c2Nc2nccc(OCC3CC3)n2)ccc1O[C@H]1CCC[C@H](C(=O)O)C1` [Example 232, (1S,3S)-3-((6-(5-((4-(cyclopropyl-methoxy)pyrimidin-2-yl)amino)-1-methyl-1H-1,2,3-triazol-4-yl)-2-methylpyridin-3-yl)oxy)cyclohexane-1-carboxylic acid]: 0.064 µM.

For the molecule `Cc1nc(-c2nnn(C)c2Nc2ccnc(OCC3CC3)n2)ccc1O[C@H]1CCC[C@H](C(=O)O)C1` [Example 233, (1S,3S)-3-((6-(5-((2-(cyclopropyl-methoxy)pyrimidin-4-yl)amino)-1-methyl-1H-1,2,3-triazol-4-yl)-2-methylpyridin-3-yl)oxy)cyclohexane-1-carboxylic acid], the IC50 stood at 0.392 µM.

With `Cc1nc(-c2nnn(C)c2Nc2cc(C3CC3)ccn2)ccc1O[C@H]1CCC[C@H](C(=O)O)C1` [Example 234, (1S,3S)-3-((6-(5-((4-cyclopropyl-pyridin-2-yl)amino)-1-methyl-1H-1,2,3-triazol-4-yl)-2-methylpyridin-3-yl)oxy)cyclohexane-1-carboxylic acid], the IC50 is 0.088 µM.

In the case of `CCCc1ccnc(Nc2c(-c3ccc(O[C@H]4CCC[C@H](C(=O)O)C4)c(C)n3)nnn2C)n1` [Example 235, (1S,3S)-3-((2-methyl-6-(1-methyl-5-((4-propylpyrimidin-2-yl)amino)-1H-1,2,3-triazol-4-yl)pyridin-3-yl)oxy) cyclohexane-1-carboxylic acid], the IC50 was found to be 0.023 µM. In the case of `CCCCc1cccc(Nc2c(-c3ccc(O[C@H]4CCC[C@H](C(=O)O)C4)c(C)n3)nnn2C)n1` [Example 236, (1S,3S)-3-((6-(5-((6-butylpyridin-2-yl)amino)-1-methyl-1H-1,2,3-triazol-4-yl)-2-methylpyridin-3-yl)oxy)cyclohexane-1-carboxylic acid], the IC50 was 0.01 µM. As to `Cc1nc(-c2nnn(C)c2Nc2cccc(OCc3ccccc3)n2)ccc1O[C@H]1CCC[C@H](C(=O)O)C1` [Example 237, (1S,3S)-3-((6-(5-((6-(benzyloxy)pyridin-2-yl)amino)-1-methyl-1H-1,2,3-triazol-4-yl)-2-methylpyridin-3-yl)oxy)cyclohexane-1-carboxylic acid], the IC50 stood at 0.055 µM. The result for `CCCOc1nccc(Nc2c(-c3ccc(O[C@H]4CCC[C@H](C(=O)O)C4)c(C)n3)nnn2C)n1` [Example 238, (1S,3S)-3-((2-methyl-6-(1-methyl-5-((2-propoxypyrimidin-4-yl)amino)-1H-1,2,3-triazol-4-yl)pyridin-3-yl)oxy)cyclohexane-1-carboxylic acid] reads 0.053 µM. The result for `CCCOc1ccnc(Nc2c(-c3ccc(O[C@H]4CCC[C@H](C(=O)O)C4)c(C)n3)nnn2C)n1` [Example 239, (1S,3S)-3-((2-methyl-6-(1-methyl-5-((4-propoxypyrimidin-2-yl)amino)-1H-1,2,3-triazol-4-yl)pyridin-3-yl)oxy) cyclohexane-1-carboxylic acid] reads 0.05 µM. The result for `CCOc1cccc(Nc2c(-c3ccc(O[C@H]4CCC[C@H](C(=O)O)C4)c(C)n3)nnn2C)n1` [Example 240, (1S,3S)-3-((6-(5-((6-ethoxypyridin-2-yl)amino)-1-methyl-1H-1,2,3-triazol-4-yl)-2-methylpyridin-3-yl)oxy) cyclohexane-1-carboxylic acid] reads 0.057 µM; that for `Cc1nc(-c2nnn(C)c2Nc2nccc(C(C)C)n2)ccc1O[C@H]1CCC[C@H](C(=O)O)C1` [Example 241, (1S,3S)-3-((6-(5-((4-isopropyl-pyrimidin-2-yl)amino)-1-methyl-1H-1,2,3-triazol-4-yl)-2-methylpyridin-3-yl)oxy)cyclohexane-1-carboxylic acid], 0.066 µM; that for `CCCOc1cccc(Nc2c(-c3ccc(O[C@H]4CCC[C@H](C(=O)O)C4)c(C)n3)nnn2C)n1` [Example 242, (1S,3S)-3-((2-methyl-6-(1-methyl-5-((6-propoxypyridin-2-yl)amino)-1H-1,2,3-triazol-4-yl)pyridin-3-yl)oxy) cyclohexane-1-carboxylic acid], 0.011 µM. As for `Cn1nnc(-c2ccc(O[C@H]3CCC[C@H](C(=O)O)C3)cn2)c1Nc1nccc(OCC2CC2)n1` [Example 243, (1S,3S)-3-((6-(5-((4-(cyclopropyl-methoxy)pyrimidin-2-yl)amino)-1-methyl-1H-1,2,3-triazol-4-yl)pyridin-3-yl)oxy)cyclohexane-1-carboxylic acid], the IC50 came to 0.122 µM.

As for `CCCc1cccc(Nc2c(-c3ccc(O[C@H]4CCC[C@H](C(=O)O)C4)cn3)nnn2C)n1` [Example 244, (1S,3S)-3-((6-(1-methyl-5-((6-propylpyridin-2-yl)amino)-1H-1,2,3-triazol-4-yl)pyridin-3-yl)oxy) cyclohexane-1-carboxylic acid], the half-inhibitory concentration (IC50) is 0.043 µM. In the case of `CCCCc1cccc(Nc2c(-c3ccc(O[C@H]4CCC[C@H](C(=O)O)C4)cn3)nnn2C)n1` [Example 245, (1S,3S)-3-((6-(5-((6-butylpyridin-2-yl)amino)-1-methyl-1H-1,2,3-triazol-4-yl)pyridin-3-yl)oxy)cyclohexane-1-carboxylic acid], the IC50 is 0.032 µM.

With `CCCOc1ccnc(Nc2c(-c3ccc(O[C@H]4CCC[C@H](C(=O)O)C4)cn3)nnn2C)n1` [Example 246, (1S,3S)-3-((6-(1-methyl-5-((4-propoxypyrimidin-2-yl)amino)-1H-1,2,3-triazol-4-yl)pyridin-3-yl)oxy) cyclohexane-1-carboxylic acid], the IC50 amounted to 0.225 µM.

In the case of `CCCc1ccnc(Nc2c(-c3ccc(O[C@H]4CCC[C@H](C(=O)O)C4)cn3)nnn2C)n1` [Example 247, (1S,3S)-3-((6-(1-methyl-5-((4-propylpyrimidin-2-yl)amino)-1H-1,2,3-triazol-4-yl)pyridin-3-yl)oxy) cyclohexane-1-carboxylic acid], the IC50 is 0.318 µM.

As usually defined, the IC50 is the concentration that inhibits the measured activity by half.
